{"source": "patent US6869923B1", "about": "“Perfume compositions” (Procter & Gamble Company, priority 1998, dated 2005)"}
{"system": "panelist", "experiment": "Odor detection threshold (ODT) by gas chromatograph with sniff port", "design": "species or system human", "conditions": "GC sniff port, average across panelists", "experimental": "Odor detection thresholds are determined using a gas chromatograph. The gas chromatograph is calibrated to determine the exact volume of material injected by the syringe, the precise split ratio, and the hydrocarbon response using a hydrocarbon standard of known concentration and chain-length distribution. The air flow rate is accurately measured and, assuming the duration of a human inhalation to last […], the sampled volume is calculated. […] A panelist sniffs the GC effluent and identifies the retention time when odor is noticed. The average across all panelists determines the threshold of noticeability. […] Typical gas chromatograph parameters for determining odor detection thresholds are listed below. • GC: 5890 Series II with FID detector • 7673 Autosampler • Column: J&W Scientific DB-1 • Length 30 meters ID 0.25 mm film thickness 1 micron • Method: • Split Injection: 17/1 split ratio • Autosampler: 1.13 microliters per injection • Column Flow: 1.10 mL/minute • Air Flow: 345 mL/minute • Inlet Temp. 245° C. • Detector Temp. 285° C. • Temperature Information • Initial Temperature: 50° C. • Rate: 5 C/minute • Final Temperature: 280° C. • Final Time: 6 minutes • Leading assumptions: • (i) 12 seconds per sniff • (ii) GC air adds to sample dilution A-High Impact Accord (“HIA”) Perfume Ingredients of Class 1", "units": {"ODT": "PPB"}}
{"compound": "CCC12CCC3C(C)(C)CCCC3(C)C1CCO2", "note": "(stereo not shown) [Naphtho(2.1-B)-furan,3A-Ethyl Dodecahydro-6,6,9A-Trimethyl]", "ODT": "<50"}
{"compound": "CC(=O)C1(C)CC2=C(CCCC2(C)C)CC1C", "note": "(stereo not shown) [7,Acetyl,1,2,3,4,5,6,7,8-Octahydro-1,1,6,7-Tetra Methyl Naphthalene]", "ODT": "<50"}
{"compound": "CC(CO)C1CCCCCCCCCCC1", "note": "(stereo not shown) [2-(Cyclododecyl)-propan-1-ol]", "ODT": "<50"}
{"compound": "CCC(=O)OC1CC2CC1C1CC=CC21", "note": "(stereo not shown) [Frutene]", "ODT": "<50"}
{"compound": "CC1C(C)(C)C2=C(C(=O)CCC2)C1(C)C", "note": "(stereo not shown) [6,7Dihydro-1,1,2,3,3-Penta-Methyl-4(5H)-Indanone]", "ODT": "<50"}
{"compound": "3-Methyl-4(5)-Cyclopentadecenone", "ODT": "<50"}
{"compound": "CC1=CC(C)C(C=O)CC1", "note": "(stereo not shown) [Cyclal C]", "ODT": "<50"}
{"compound": "CCCC(O)CCC1C(C)CCCC1(C)C", "note": "(stereo not drawn) [Cyclohexane Propanol 2,2,6 Trimethyl-Alpha-Propyl.]", "ODT": "<50"}
{"compound": "CC(C)=CC1CC(C)CCO1", "note": "(stereo not shown) [Rose Oxide]", "ODT": "<50"}
{"compound": "COc1ccc(C=O)cc1", "note": "[Anisic Aldehyde]", "ODT": "<50"}
{"compound": "C=CC(C)(O)CCC=C(C)C", "note": "(stereo not shown) [Linalool]", "ODT": "<50"}
{"compound": "CC(=O)OC1CC2CC1C1CC=CC21", "note": "(stereo not shown) [Flor Acetate]", "ODT": "<50"}
{"compound": "CCCCCCC#CC(=O)OC", "note": "[Methyl Octine Carbonate]", "ODT": "<50"}
{"compound": "CC(=O)/C=C/C1=C(C)CCCC1(C)C", "note": "[Ionone Beta]", "ODT": "<50"}
{"compound": "CCOC(=O)C(C)CC", "note": "(stereo not shown) [Ethyl-2-methyl Butyrate]", "ODT": "<50"}
{"compound": "CC1=CCC(C=CC(C)C(C)O)C1(C)C", "note": "(stereo not shown) [3-Methyl-5-(2,2,3,trimethyl-3-cyclopenten-1-yl)-4-penten-2-ol]", "ODT": "<50"}
{"compound": "CCCCCCCCCCC=CC#N", "note": "[Tridecene-2-nitrile]", "ODT": "<50"}
{"compound": "CC1COC(C)(c2ccc3c(c2)C(C)(C)CCC3(C)C)O1", "note": "(stereo not shown) [2,4,Dimethyl-2-(1,1,4,4 tetramethyl) tetralin-6-yl)-13-dioxolane]", "ODT": "<50"}
{"compound": "Oxacyclohexadecen-2-one", "ODT": "<50"}
{"compound": "O=C1CCCC=CCCCCCCCCCC1", "note": "[5-Cyclohexadecenone-1]", "ODT": "<50"}
{"compound": "CC1=CCC(C(C)CC2CCCC2=O)CC1", "note": "(stereo not shown) [2-(2-(4 methyl-3-Cyclohexen-1-yl)propyl)-cyctopentanone.]", "ODT": "<50"}
{"compound": "CC/C=C\\CCOC(=O)c1ccccc1O", "note": "[Cis-3-Hexenyl Salicylate]", "ODT": "<50"}
